Entries after “also recorded” stand apart in the source; their conditions may differ.
How the values were obtained:
telomerase = target: T1, telomerase (Homo sapiens, UniProt O14746); assay: Telomerase activity by TRAP assay; type: cell-based; details: HEK 293T, LDA 0 nM to 500 nM for 24 hrs, 12 Gy IR, further 48 hrs
T1 construct: Extracted protein (500 ng) was used to assess telomerase activity by TRAP; endogenous in cells; host or cells: HEK 293T cells
Description: FIG. 7. HEK cells were stimulated with ConA, 10 μg/ml. After 24 hrs, LDA was introduced (range from 0 nM to 500 nM) and again incubated 24 hrs. 12 Gy of IR was delivered, cells were incubated an additional 48 hrs and harvested. Extracted protein (500 ng) was used to assess telomerase activity by TRAP, compared with a telomerase positive control and no-Arsenic, no-IR control. HI: heat inactivated.
However, we will test this observation in T lymphocytes, which are known to dynamically regulate telomerase expression. This will better recapitulate the effect of LDA within the hematopoietic compartment.

[1] = Observation of arsenic-induced malignancy in animal model; type: in vivo
Excerpt: Arsenic has different biological effects in vitro and induces expression of different sets of genes depending on the dose. Our approach with LDA aims to mitigate certain known adverse biological effects. For example, arsenic trioxide is a cytotoxic agent used to treat acute promyelocytic leukemia (APL). However, the dose of arsenic trioxide used for our strategy is much lower than the dose used to treat APL. Arsenic is also a known carcinogen.

[2] = system: human adult foreskin keratinocytes; details: cited from earlier work
telomere = details: individuals with telomere maintenance disorders; cited from earlier work
[3] = system: mouse embryonic stem cells expressing RAD51^K133A; assay: Loss of heterozygosity (LOH) assay, miniHPRT deletion, 6-TG resistance; type: cell-based
Excerpt: FIG. 8. […] NT; no arsenite treatment, WT; wild type embryonic stem cells, KA; mutant embryonic stem cells expressing RAD51^K133A
We performed a loss of heterozygosity (LOH) assay to detect mutations in the HPRT gene [resistance to 6-TG (thioguanine)] utilizing a mouse embryonic stem cells that express RAD51^K133A. We used a knockout-knockin strategy that introduces RAD51^K133A adjacent to the mouse RAD51 promoter while restoring miniHPRT, a positive/negative selection cassette: select for expression in HAT (hypoxanthine, aminopterin, thymidine) and select against expression in 6-TG. We screen for LOH of miniHPRT by selecting in 6-TG. Using this assay, we can detect a broad range of mutations. RAD51 is a recombinase that is essential for DNA double strand break repair and for protecting the nascent strand during replication. The K133A mutation is in the highly conserved Walker A motif and it causes a defect in ATP binding that disables the ability of RAD51 to induce topological changes in duplex DNA in an ATP-dependent manner.
For this assay, mutant mouse embryonic stem cells expressing RAD51^K133A were passaged two times while being selected in HAT to remove any cells that spontaneously deleted miniHPRT. Then LDA and HAT were applied to these cells for 2 days. […] Cells were then seeded onto new plates in 6-TG and colonies were counted 8 days later. […]

[4] = Clinical trial: toxicity and blood counts during myelosuppressive chemotherapy; type: in vivo, human
Excerpt: Additionally, data from a clinical trial supports a beneficial effect of LDA in patients. The trial had two objectives: 1) to define the lowest safe dose of arsenic trioxide that blocks p53 activation in patients and 2) to assess the potential of LDA in decreasing hematological toxicity from myelosuppressive chemotherapy. Patients scheduled for treatment with at least 4 cycles of myelosuppressive chemotherapy with a minimum of 2 weeks between the cycles were eligible.
The p53 expression level in patients' peripheral lymphocytes was measured as a surrogate marker for p53 activity for the patients. […] For the second stage of the study (second objective), patients were treated with chemotherapy without any LDA pretreatment before cycles 1, 3 and 5. They were treated with intravenous LDA of 0.005 mg/kg for 3 days prior to cycles 2, 4 and 6. […] Because the competing and compounding effects of multi-drug chemotherapy on p53 were felt to affect the p53 activity even in the presence of LDA pretreatment, we decided to focus on p53 activity obtained just prior to chemotherapy administration (on day 1). If the p53 activity level for the subsequent cycle (e.g., cycle 2 for cycle 1, cycle 4 for cycle 3 etc.) was lower than the baseline cycle, p53 was defined as “suppressed” for the pair of cycles. […]

bone marrow cells = assay: Bone marrow protection against Y-90 ibritumomab tiuxetan-induced damage (H&E, γ-H2AX, TUNEL staining); type: in vivo, BALB/c mice
Description: At the indicated time points, mice were sacrificed by cervical […] and bone marrows were harvested for staining. (A) Quantification of γ-H2AX positive cells.
LDA pretreatment was administered through drinking water containing 1 mg/L arsenic trioxide for three days. […] Tissue samples were collected at different time points (3 hours to 5 weeks) after treatment.
Bone marrow damage was analyzed histologically with hematoxylin and eosin (H&E) staining, DNA DSBs were assessed by γ-H2AX staining and apoptosis was detected by terminal deoxynucleotidyl transferase dUTP nick end labeling (TUNEL) staining.

Karpas 422 = assay: Mouse xenograft model with CD20 expressing lymphoma cell line, tumor volume; type: in vivo
Description: Treatments were initiated 1 week after implantation when tumors became palpable. Tumor volumes were measured periodically with calipers. Tumor volume was calculated using the equation: volume=length×width×depth×0.5236 […]. Two independent experiments were done and the tumor volumes were expressed as means±SE.

peripheral T-lymphocytes = assay: Telomere length of ConA-stimulated peripheral blood T-lymphocytes after radiation or chemotherapy; type: cell-based, human; details: 100 nM arsenic trioxide for 24 hours, then 12 Gy X-ray, harvested 48 hours later
Description: FIG. 2. T-lymphocytes isolated from healthy donors' peripheral blood were incubated with 10 μg/ml of Concanavalin A overnight. The cells were treated with either solvent or 100 nM arsenic (As) trioxide for 24 hours, followed by 12 Gy of X-ray treatment. Forty-eight hours later, the cells were harvested for telomere length measurement. The results represent four independent experiments. Paired student's t-test was used to calculate the p values.
FIG. 3. (A) Live cell percentage and (B) relative telomere length of T-lymphocytes in response to a serial dilution of etoposide. (C) Live cell percentage and (D) relative telomere length of T-lymphocytes treated with solvent or 160 μM etoposide in the presence or absence of LDA pretreatment.
FIG. 4. (A) Live cell percentage and (B) relative telomere length of T-lymphocytes in response to a serial dilution of doxorubicin. (C) Live cell percentage and (D) relative telomere length of T-lymphocytes treated with solvent or 1.6 μM doxorubicin in the presence or absence of LDA pretreatment.
As one of the first steps to explore the role of LDA in protecting the bone marrow from DNA DSBs as observed in FIG. 1 above, we studied the effect of LDA on telomere length in the setting of IR. We observed the expected shortening of telomere length in the peripheral T-lymphocytes (obtained from donors' peripheral blood and proliferated with ConA) after IR.

[5] = system: T-cell leukemic cell line (Loucy); assay: Relative telomere length of T-cell leukemic cell line after 12 Gy radiation; type: cell-based; details: presence or absence of LDA
Excerpt: FIG. 5. Relative telomere length of T-cell leukemic cell line (Loucy) after 12 Gy of radiation in the presence or absence of LDA treatment.

[6] = system: mouse embryonic stem (ES) cells (WT, msh2−/−, p53−/−); assay: Survival fraction of ES cells exposed to γ radiation and LDA; type: cell-based
Description: FIG. 6. Dose response to γ radiation and sodium (Na) arsenite. (A, B) Survival fraction curves to determine the working doses. The wild type (WT) cells (black, green) are the parental cells for the msh2 and p53 mutations, respectively. (C, D) Survival fraction curves with msh2−/− and p53−/− cells exposed to γ radiation and LDA (100 nM Na arsenite). Error bars are shown for the average of 3 independent experiments.
To discover LDA essential genes, cell survival and DNA damage/mutation assays will be performed. First we will establish working doses for all control and mutant cells in Table 1 since they will vary depending on the mutation. As a pilot we started with ES cells mutated for Msh2 and p53 since mutations in both are implicated in the development and progression of secondary MDS/AML.
Msh2 is a member of mismatch repair (MMR) important for postreplication repair and homologous recombination regulation while p53 is essential for responses to a variety of stresses including DNA damage and ribosomal stress. Based on the dose response curve (FIGS. 6A, B), cells will be exposed to 100 nM sodium arsenite 24 hours before exposure to 3-6 Gy. […] Since the differences for the […] cells and their control cells are small, we will repeat the experiment with different Na arsenite doses. […]

untransformed cells = assay: Pretreatment of untransformed cells with LDA: p53, NF-kB, glycolysis; type: cell-based; details: in vitro and in vivo studies
Excerpt: Activation of p53 is one of the major pathways by which DNA damaging agents such as radiation therapy and chemotherapy cause toxicity in normal tissues and it induces a cascade of events that eventually leads to cell senescence or death. […] This metabolic shift provides cells with effective protection against cytotoxic radiation or chemotherapy, coupling the metabolic pathway to cellular resistance. […] This protective effect is selective to normal tissues, as it requires functional p53. Though not every cancer cell has detectable p53 mutation, essentially every cancer cell has dysfunctional p53. Therefore, cancer cells will not be protected by this strategy.
Activation of p53 is one of major pathways by which DNA damaging agents such as IR and chemotherapy cause toxicity in normal tissues, inducing a cascade of events that eventually leads to cell senescence or cell death. […] This metabolic shift provides cells with effective protection against cytotoxic IR or chemotherapy, coupling the metabolic pathway to cellular resistance. […] Importantly, this protective effect is selective to normal tissues, as it requires functional p53. Though not every cancer cell has a detectable p53 mutation, essentially every cancer cell has dysfunctional p53. Therefore, cancer cells will not be protected by this strategy.

T1 sequence (O14746 whole entry): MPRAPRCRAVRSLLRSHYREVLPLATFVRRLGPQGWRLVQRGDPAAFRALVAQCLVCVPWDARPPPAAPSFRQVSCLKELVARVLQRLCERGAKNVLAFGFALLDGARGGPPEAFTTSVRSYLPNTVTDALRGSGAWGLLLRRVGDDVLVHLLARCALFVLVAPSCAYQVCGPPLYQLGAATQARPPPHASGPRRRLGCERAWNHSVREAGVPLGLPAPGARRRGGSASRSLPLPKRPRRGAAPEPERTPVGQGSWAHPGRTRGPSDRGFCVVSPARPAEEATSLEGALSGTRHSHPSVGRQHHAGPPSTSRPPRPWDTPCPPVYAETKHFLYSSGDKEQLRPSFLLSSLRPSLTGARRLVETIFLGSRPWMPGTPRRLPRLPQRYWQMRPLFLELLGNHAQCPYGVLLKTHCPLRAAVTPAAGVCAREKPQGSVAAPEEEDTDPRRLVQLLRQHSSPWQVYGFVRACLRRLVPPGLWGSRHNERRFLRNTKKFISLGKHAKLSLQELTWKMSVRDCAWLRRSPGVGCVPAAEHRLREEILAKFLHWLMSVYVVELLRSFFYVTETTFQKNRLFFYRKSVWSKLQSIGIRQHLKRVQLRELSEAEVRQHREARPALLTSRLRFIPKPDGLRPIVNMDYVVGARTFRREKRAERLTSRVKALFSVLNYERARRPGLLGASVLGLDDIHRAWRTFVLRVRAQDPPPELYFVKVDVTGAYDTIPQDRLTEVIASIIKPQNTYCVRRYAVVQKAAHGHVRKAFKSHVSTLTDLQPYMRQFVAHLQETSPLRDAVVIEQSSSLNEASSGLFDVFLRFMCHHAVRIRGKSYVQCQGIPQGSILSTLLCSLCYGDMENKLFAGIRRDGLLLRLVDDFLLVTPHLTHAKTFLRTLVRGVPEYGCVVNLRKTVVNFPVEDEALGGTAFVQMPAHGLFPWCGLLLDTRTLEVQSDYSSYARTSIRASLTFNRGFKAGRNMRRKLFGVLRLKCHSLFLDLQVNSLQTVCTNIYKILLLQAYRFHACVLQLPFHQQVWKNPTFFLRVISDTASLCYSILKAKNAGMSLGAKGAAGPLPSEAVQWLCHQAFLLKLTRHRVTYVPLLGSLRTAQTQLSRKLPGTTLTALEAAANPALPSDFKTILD
T1 sequence (O60832 whole entry partner): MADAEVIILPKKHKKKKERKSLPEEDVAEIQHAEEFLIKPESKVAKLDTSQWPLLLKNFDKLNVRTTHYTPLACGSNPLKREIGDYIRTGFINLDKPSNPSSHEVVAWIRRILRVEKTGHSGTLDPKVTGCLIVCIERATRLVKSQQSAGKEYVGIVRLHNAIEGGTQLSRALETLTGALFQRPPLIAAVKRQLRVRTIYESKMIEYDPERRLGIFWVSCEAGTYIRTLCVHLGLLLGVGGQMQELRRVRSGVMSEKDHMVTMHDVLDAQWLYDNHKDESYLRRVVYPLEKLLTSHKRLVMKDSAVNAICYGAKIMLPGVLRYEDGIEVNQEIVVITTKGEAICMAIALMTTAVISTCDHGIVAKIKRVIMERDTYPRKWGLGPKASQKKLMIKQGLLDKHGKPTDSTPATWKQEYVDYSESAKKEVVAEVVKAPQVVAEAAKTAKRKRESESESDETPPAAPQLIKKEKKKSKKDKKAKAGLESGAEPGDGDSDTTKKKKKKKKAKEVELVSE
T1 sequence (Q9NPE3 whole entry partner): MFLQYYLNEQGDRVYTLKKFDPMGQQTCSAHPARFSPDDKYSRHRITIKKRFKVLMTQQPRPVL
T1 sequence (Q9NX24 whole entry partner): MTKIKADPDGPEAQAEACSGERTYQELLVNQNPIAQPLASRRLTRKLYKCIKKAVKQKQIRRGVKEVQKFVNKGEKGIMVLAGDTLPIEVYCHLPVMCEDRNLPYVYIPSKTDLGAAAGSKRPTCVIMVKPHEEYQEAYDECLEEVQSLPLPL
T1 sequence (Q9NY12 whole entry partner): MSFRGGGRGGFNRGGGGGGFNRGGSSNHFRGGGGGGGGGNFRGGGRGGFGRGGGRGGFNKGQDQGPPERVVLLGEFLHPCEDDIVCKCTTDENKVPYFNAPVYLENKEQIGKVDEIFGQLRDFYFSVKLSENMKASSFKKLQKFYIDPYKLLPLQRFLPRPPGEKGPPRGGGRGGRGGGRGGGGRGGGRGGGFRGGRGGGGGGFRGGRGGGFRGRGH
T1 sequence (Q9BUR4 whole entry partner): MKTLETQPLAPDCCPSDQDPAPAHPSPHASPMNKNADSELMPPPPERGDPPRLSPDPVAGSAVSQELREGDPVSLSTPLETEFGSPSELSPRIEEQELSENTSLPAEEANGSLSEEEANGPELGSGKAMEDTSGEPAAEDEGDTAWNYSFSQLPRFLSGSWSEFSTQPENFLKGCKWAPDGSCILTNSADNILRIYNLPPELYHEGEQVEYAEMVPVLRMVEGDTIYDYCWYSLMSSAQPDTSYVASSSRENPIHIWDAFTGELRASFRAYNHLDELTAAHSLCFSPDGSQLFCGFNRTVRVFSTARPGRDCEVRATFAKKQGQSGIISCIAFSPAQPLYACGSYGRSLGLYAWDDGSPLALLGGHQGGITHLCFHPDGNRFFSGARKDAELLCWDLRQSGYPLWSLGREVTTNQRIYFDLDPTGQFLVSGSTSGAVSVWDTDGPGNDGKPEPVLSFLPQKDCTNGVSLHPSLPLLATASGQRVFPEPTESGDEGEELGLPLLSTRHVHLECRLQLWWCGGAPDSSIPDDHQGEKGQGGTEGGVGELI

Question: Which results are given for `[AsH3]` [arsenic]?
Answer: telomerase activity (TRAP) (telomerase): no obvious difference in telomerase activity; arsenic-induced malignancy [1]: not observed any arsenic-induced malignancy

Question: With `O[As](O)O` [arsenite] as the molecule, how does the “concentration resulting in induced proliferation with enhanced NF-κB and AP-1 activity” value ([2]; 24 hr) read?
Answer: ≤ 5 µM

Question: And the “concentration with statistically significant decrease of cell viability” value [2]?
Answer: ≥ 10 µM

Question: Which telomere attrition (telomere) does the source give for `C#C[C@]1(O)CC[C@H]2[C@@H]3CCC4=Cc5oncc5C[C@]4(C)[C@H]3CC[C@@]21C` [danazol] here?
Answer: significantly reduce telomere attrition

Question: For `O=[As]O` [sodium arsenite], which “spontaneous deletion of miniHPRT (percentage of 6-TG-resistant cells)” value ([3]; 5 nM sodium arsenite) is on record?
Answer: reduced this deletion

Question: And the “spontaneous deletion of miniHPRT (percentage of 6-TG-resistant cells)” value ([3]; 100 nM sodium arsenite)?
Answer: reduced this deletion

Question: With arsenic trioxide as the molecule, how does the “arsenic trioxide related toxicity” value ([4]; patients, first stage, arsenic trioxide intravenously) read?
Answer: None of these patients experienced any arsenic trioxide related toxicity

Question: For arsenic trioxide [LDA], which “bone marrow cell loss (loss of cellularity), H&E staining” value (bone marrow cells; LDA pretreatment (drinking water 1 mg/L arsenic trioxide, three days) before 200 μCi Y-90 ibritumomab tiuxetan via tail vein) is on record?
Answer: protected; also recorded: significantly reduced

Question: What about the “apoptosis, TUNEL positive cells in bone marrow” value (bone marrow cells; LDA pretreatment before 200 μCi Y-90 ibritumomab tiuxetan) of the same molecule?
Answer: protected

Question: What about the “DNA DSBs, γ-H2AX positive cells in bone marrow” value (bone marrow cells; LDA pretreatment before 200 μCi Y-90 ibritumomab tiuxetan, 6 hours to 1 week after treatment) of the same molecule?
Answer: protected; also recorded: considerably diminished

Question: What about the “growth of the implanted tumors (tumor volume)” value (Karpas 422; LDA pretreatment alone) of the same molecule?
Answer: did not have any detectable effect

Question: What about the “effect of LDA pretreatment on Y-90-induced tumor growth suppression” value (Karpas 422; LDA pretreatment followed by Y-90 ibritumomab tiuxetan) of the same molecule?
Answer: without compromising tumor response; also recorded: no effect

Question: And the “telomere length after IR” value (peripheral T-lymphocytes)?
Answer: maintenance of telomere length; also recorded: helps prevent shortening of telomere length

Question: And the “telomere length of leukemic cells” value [5]?
Answer: does not make any difference

Question: And the “mean ANC, WBC and Hgb, p53 suppressed group relative to activated group” value ([4]; 26 patients, LDA 0.005 mg/kg for 3 days before myelosuppressive chemotherapy cycles)?
Answer: statistically significantly higher; also recorded: better blood counts

Question: And the “LDA protection of control and msh2−/− cells from γ radiation (survival fraction)” value ([6]; 100 nM Na arsenite 24 hours before γ radiation)?
Answer: protects both control and msh2^−/− cells from γ radiation

Question: What about the “LDA-mediated protection in p53−/− cells versus WT (survival fraction)” value ([6]; 100 nM Na arsenite, γ radiation, differences small) of the same molecule?
Answer: p53 appears to assist in LDA-mediated protection

Question: And the glycolysis (untransformed cells)?
Answer: marked induction of glycolysis

Question: What about the “p53 and NF-kB response” value (untransformed cells) of the same molecule?
Answer: induces concerted p53 suppression and NF-kB activation

— patent US10842814B2, “Use of low dose arsenic for preserving genomic integrity” (Board of Regents of the University of Texas System, priority 2016, dated 2020)
